Experimental data published in the supplement of paper PMC11061612.

Key:
Assay in all cases: combination Emax (second highest fraction inhibited in the dose matrix, 72 h); higher = more inhibition; extreme values may be limits of the assay
[1] = tested on: A4-Fuk (B-Lymphoblastic Leukemia)
Method in brief: (§1)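 Cell lines in DMEM/F12 or RPMI with 10% FBS were plated in 1536-well plates, held 24 hours at 37°C, 5% CO2, then given two-drug dose matrices for 72 hours (DMSO typically 0.2%). Viability was read by CellTiter-Glo 2.0 luminescence and scaled as inhibition from 0 (vehicle wells) to 1 (blank wells). Combination Emax is the second-highest inhibition in the matrix; Bliss excess is observed combination effect minus expected EA + EB − EA·EB, EA and EB being single-agent effects.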

[2] = tested on: ALL-SIL (T-Lymphoblastic Leukemia)
Method in brief: as §1

[3] = tested on: CADO-ES1 (Ewing's Sarcoma)
Method in brief: as §1

COLO-679 (Melanoma) = tested on: COLO-679 (Melanoma)
Method in brief: as §1

EW-1 (Ewing's Sarcoma) = tested on: EW-1 (Ewing's Sarcoma)
Method in brief: as §1

[4] = tested on: HAL-01 (B-Lymphoblastic Leukemia)
Method in brief: as §1

[5] = tested on: HCC2998 (Colorectal Carcinoma)
Method in brief: as §1

Hey (Ovarian Carcinoma) = tested on: Hey (Ovarian Carcinoma)
Method in brief: as §1

[6] = tested on: KGN (Other Solid Carcinomas)
Method in brief: as §1

[7] = tested on: KMRC-1 (Kidney Carcinoma)
Method in brief: as §1

[8] = tested on: KOPN-8 (B-Lymphoblastic Leukemia)
Method in brief: as §1

[9] = tested on: MDA-MB-453 (Breast Carcinoma)
Method in brief: as §1

[10] = tested on: ME-180 (Cervical Carcinoma)
Method in brief: as §1

[11] = tested on: ML-2 (Acute Myeloid Leukemia)
Method in brief: as §1

[12] = tested on: MOLT-4 (T-Lymphoblastic Leukemia)
Method in brief: as §1

[13] = tested on: MV-4-11 (Acute Myeloid Leukemia)
Method in brief: as §1

[14] = tested on: Mo-T (Other Blood Carcinomas)
Method in brief: as §1

[15] = tested on: NCI-H1993 (Lung Adenocarcinoma)
Method in brief: as §1

[16] = tested on: NCI-H650 (Lung Adenocarcinoma)
Method in brief: as §1

[17] = tested on: OACM5-1 (Esophageal Adenocarcinoma)
Method in brief: as §1

Row | SMILES | combination Emax [1] | combination Emax [2] | combination Emax [3] | combination Emax (COLO-679 (Melanoma)) | combination Emax (EW-1 (Ewing's Sarcoma)) | combination Emax [4] | combination Emax [5] | combination Emax (Hey (Ovarian Carcinoma)) | combination Emax [6] | combination Emax [7] | combination Emax [8] | combination Emax [9] | combination Emax [10] | combination Emax [11] | combination Emax [12] | combination Emax [13] | combination Emax [14] | combination Emax [15] | combination Emax [16] | combination Emax [17]
1 | CC1(C)CCC(CN2CCN(c3ccc(C(=O)NS(=O)(=O)c4ccc(NCC5CCOCC5)c([N+](=O)[O-])c4)c(Oc4cnc5[nH]ccc5c4)c3)CC2)=C(c2ccc(Cl)cc2)C1 [Venetoclax] + COc1cc(Nc2ncc3c(n2)-c2ccc(Cl)cc2C(c2c(F)cccc2OC)=NC3)ccc1C(=O)O [Alisertib] (first compound max 1 µM, 7x7, partner max 10 µM) | 0.822 | 1 | 0.957 | 0.282 | 0.628 | 1 | 0.225 | 0.61 | 0.685 | 0.384 | 1 | 0.314 | 0.603 | 0.988 | 0.959 | 1 | 0.71 | 0.308 | 0.319 | 0.663
2 | CC1(C)CCC(CN2CCN(c3ccc(C(=O)NS(=O)(=O)c4ccc(NCC5CCOCC5)c([N+](=O)[O-])c4)c(Oc4cnc5[nH]ccc5c4)c3)CC2)=C(c2ccc(Cl)cc2)C1 [Venetoclax] + CN(C)CCCOc1ccc(-c2ccc3ncc4c(c3c2)n(C2CCOCC2)c(=O)n4C)cn1 [AZD0156] (first compound max 1 µM, 7x7, partner max 1 µM) | 0.659 | 0.628 | 0.692 | 0.107 | 0.179 | 0.936 | 0.105 | 0.216 | 0.488 | 0.0988 | 0.813 | 0.169 | 0.211 | 0.822 | 0.741 | 1 | 0.558 | 0.413 | 0.0987 | 0.262
3 | Cc1c2c(nn1C)CSCc1cc(n(C)n1)CSc1cc(c3ccccc3c1)OCCCc1c(C(=O)O)n(C)c3c-2c(Cl)ccc13 [AZD5991] + CC1(C)CCC(CN2CCN(c3ccc(C(=O)NS(=O)(=O)c4ccc(NCC5CCOCC5)c([N+](=O)[O-])c4)c(Oc4cnc5[nH]ccc5c4)c3)CC2)=C(c2ccc(Cl)cc2)C1 [Venetoclax] (first compound max 1 µM, 7x7, partner max 1 µM) | 1 | 1 | 0.911 | 0.388 | 0.684 | 0.984 | 0.893 | 0.133 | 0.263 | 0.289 | 0.936 | 0.346 | 0.286 | 1 | 0.857 | 1 | 0.196 | 0.325 | 0.329 | 0.917
4 | NC1(C(=O)N[C@@H](CCO)c2ccc(Cl)cc2)CCN(c2ncnc3[nH]ccc23)CC1 [Capivasertib] + CC(=O)c1c(C)c2cnc(Nc3ccc(N4CCNCC4)cn3)nc2n(C2CCCC2)c1=O [Palbociclib] (first compound max 10 µM, 7x7, partner max 10 µM) | 0.722 | 0.46 | 0.274 | 0.324 | 0.608 | 0.69 | 0.591 | 0.578 | 0.724 | 0.457 | 0.809 | 0.589 | 0.629 | 0.593 | 0.736 | 0.861 | 0.4 | 0.647 | 0.262 | 0.721
5 | CS(=O)(=O)CCNCc1ccc(-c2ccc3ncnc(Nc4ccc(OCc5cccc(F)c5)c(Cl)c4)c3c2)o1 [Lapatinib] + C[C@@H](Oc1cc(-c2cnn(C3CCNCC3)c2)cnc1N)c1c(Cl)ccc(F)c1Cl [Crizotinib] (first compound max 10 µM, 7x7, partner max 10 µM) | 0.976 | 1 | 0.774 | 0.68 | 0.966 | 0.955 | 0.938 | 0.865 | 0.944 | 0.952 | 0.978 | 0.531 | 0.81 | 0.983 | 0.966 | 0.978 | 0.88 | 0.94 | 0.615 | 0.889
6 | CN(C)CCCOc1ccc(-c2ccc3ncc4c(c3c2)n(C2CCOCC2)c(=O)n4C)cn1 [AZD0156] + CCN(CCO)CCCOc1ccc2c(Nc3cc(CC(=O)Nc4cccc(F)c4)[nH]n3)ncnc2c1 [AZD2811] (first compound max 1 µM, 7x7, partner max 1 µM) | 0.551 | 0.976 | 0.323 | 0.159 | 0.301 | 0.435 | 0.183 | 0.229 | 0.551 | 0.13 | 0.554 | 0.144 | 0.192 | 0.878 | 0.968 | 0.93 | 0.137 | 0.288 | 0.124 | 0.232
